ChEMBL document CHEMBL4616632, “Discovery of Cyclic Boronic Acid QPX7728, an Ultrabroad-Spectrum Inhibitor of Serine and Metallo-β-lactamases” (J Med Chem, 2020)

Assays:
[1] = AUC in rat at 100 mg/kg, iv administered as infusion for 0.5 hrs by HPLC/MS analysis; format: ADME, organism-based; conditions: in vivo
[2] = system: Enterobacteriaceae; experiment: Inhibition of OXA-48 in carbapenem-resistant Enterobacteriaceae assessed as potentiation of ceftolozane-induced antibacterial activity by measuring ceftolozane MIC90 at 8 ug/ml by broth microdilution method (Rvb > 32 ug/ml)
[3] = system: Enterobacteriaceae; experiment: Inhibition of OXA-48 in carbapenem-resistant Enterobacteriaceae assessed as potentiation of ceftolozane-induced antibacterial activity by measuring ceftolozane MIC50 at 8 ug/ml by broth microdilution method (Rvb > 32 ug/ml)
[4] = Half life in rat at 10 mg/kg, iv administered as infusion for 0.5 hrs by HPLC/MS analysis; format: ADME, organism-based; conditions: in vivo
[5] = AUC in rat at 100 mg/kg, po administered via gavage by HPLC/MS analysis; format: ADME, organism-based; conditions: in vivo
[6] = system: Escherichia coli; experiment: Inhibition of Escherichia coli KP308 SHV-5 assessed as minimum concentration of compound required to reduce the MIC of aztreonam to 4 ug/ml
[7] = Half life in rat at 300 mg/kg, iv administered as infusion for 0.5 hrs by HPLC/MS analysis; format: ADME, organism-based; conditions: in vivo
[8] = Clearance in rat at 100 mg/kg, po administered via gavage by HPLC/MS analysis; format: ADME, organism-based; conditions: in vivo
[9] = target: Interstitial collagenase (Homo sapiens, UniProt P03956); experiment: Inhibition of mammalian MMP-1 (unknown origin) using McaPLGLDpaAR-NH2 as substrate preincubated for 10 mins followed by substrate addition measured after 30 mins
[10] = system: Enterobacterales; experiment: Potentiation of meropenem-induced antibacterial activity against Enterobacterales assessed as meropenem MIC90 at 8 ug/ml by broth microdilution method (Rvb > 32 ug/ml); format: functional
[11] = system: Klebsiella pneumoniae; experiment: Potentiation of meropenem-induced bacteriostatic activity against carbapenem-resistant Klebsiella pneumoniae KP1244 harboring KPC-3, SHV-11, and SHV-12 infected in Swiss-Webster mouse model of neutropenic thigh infection assessed as log change in bacterial count in thigh at 10 mg/kg, ip administered at 2 hrs interval for 24 hrs starting from 2 hr post infection and measured post last dose (reference value: 0.62 log10CFU); format: functional
[12] = system: Pseudomonas aeruginosa; experiment: Potentiation of ceftolozane-induced antibacterial activity against Pseudomonas aeruginosa assessed as ceftolozane MIC50 at 8 ug/ml by broth microdilution method (reference value: 0.5 ug/ml); format: functional
[13] = system: Enterobacteriaceae; experiment: Inhibition of NDM/VIM in carbapenem-resistant Enterobacteriaceae assessed as potentiation of ceftolozane-induced antibacterial activity by measuring ceftolozane MIC90 at 8 ug/ml by broth microdilution method (Rvb > 32 ug/ml)
[14] = target: Trypsin (Homo sapiens, UniProt P07477+P07478+P35030); experiment: Inhibition of mammalian trypsin (unknown origin) using N-Bz-R-AMC as substrate preincubated for 10 mins followed by substrate addition measured after 30 mins; format: protein assay
[15] = system: Acinetobacter baumannii; experiment: Inhibition of Acinetobacter baumannii AB1053 OXA-72 assessed as minimum concentration of compound needed to reduce the MIC of meropenem to 8 ug/ml
[16] = target: Class A carbapenemase KPC-2 (Escherichia coli, UniProt A8DS27); experiment: Inhibition of recombinant Escherichia coli KPC-2 using nitrocefin as substrate preincubated for 10 mins followed by substrate addition and measured every 10 secs for 10 mins by spectrophotometric analysis
[17] = AUC in rat at 1000 mg/kg, po administered via gavage by HPLC/MS analysis; format: ADME, organism-based; conditions: in vivo
[18] = system: Klebsiella pneumoniae; experiment: Potentiation of meropenem-induced antibacterial activity in Klebsiella pneumoniae KP1244 by measuring meropenem MIC at 8 ug/ml by broth microdilution method (Rvb >64 ug/ml); format: functional
[19] = target: Neutrophil elastase (Homo sapiens, UniProt P08246); experiment: Inhibition of mammalian neutrophil elastase (unknown origin) using MeOSuc-AAVP-AMC as substrate preincubated for 10 mins followed by substrate addition measured after 30 mins
[20] = target: Chymase (Homo sapiens, UniProt P23946); experiment: Inhibition of mammalian chymase (unknown origin) using Suc-AAPF-AMC as substrate preincubated for 10 mins followed by substrate addition measured after 30 mins
[21] = Toxicity in rat assessed as clinical changes at 30 to 300 mg/kg, iv administered daily via infusion for 7 days; format: organism-based; conditions: in vivo, 168 h
[22] = system: Klebsiella pneumoniae; experiment: Potentiation of meropenem-induced bacteriostatic activity against carbapenem-resistant Klebsiella pneumoniae KP1244 harboring KPC-3, SHV-11, and SHV-12 infected in Swiss-Webster mouse model of neutropenic thigh infection assessed as log change in bacterial count in thigh at 1 mg/kg, ip administered at 2 hrs interval for 24 hrs starting from 2 hr post infection and measured post last dose (reference value: 0.62 log10CFU); format: functional
[23] = system: Acinetobacter baumannii; experiment: Potentiation of cefepime-induced antibacterial activity against carbapenem-resistant Acinetobacter baumannii assessed as cefepime MIC50 at 8 ug/ml by broth microdilution method (Rvb > 32 ug/ml); format: functional
[24] = system: Enterobacteriaceae; experiment: Potentiation of cefepime-induced antibacterial activity against carbapenem-resistant Enterobacteriaceae assessed as cefepime MIC90 at 8 ug/ml by broth microdilution method (Rvb > 32 ug/ml); format: functional
[25] = Toxicity in rat at 30 to 1000 mg/kg, po administered via gavage; format: organism-based; conditions: in vivo
[26] = target: Chymotrypsin (Homo sapiens, UniProt Q99895+P17538+P40313+Q6GPI1); experiment: Inhibition of mammalian chymotrypsin (unknown origin) using Suc-AAPF-AMC as substrate preincubated for 10 mins followed by substrate addition measured after 30 mins; format: protein assay
[27] = Inhibition of recombinant Escherichia coli CTX-M-14 using nitrocefin as substrate preincubated for 10 mins followed by substrate addition measured every 10 secs for 10 mins by spectrophotometrically analysis
[28] = Oral bioavailability in rat at 100 mg/kg in fasted condition by HPLC/MS analysis; format: ADME, organism-based; conditions: in vivo
[29] = target: Endothelin-converting enzyme 1 (Homo sapiens, UniProt P42892); experiment: Inhibition of mammalian ECE-1 (unknown origin) using MCA-RPPGFSAFK(DNP)-OH as substrate preincubated for 10 mins followed by substrate addition measured after 30 mins
[30] = target: BlaVIM-1 (Escherichia coli, UniProt Q8GDC1); experiment: Inhibition of recombinant Escherichia coli VIM-1 using nitrocefin as substrate preincubated for 10 mins followed by substrate addition measured every 10 secs for 10 mins by spectrophotometrically analysis
[31] = system: Enterobacteriaceae; experiment: Inhibition of NDM/VIM in carbapenem-resistant Enterobacteriaceae assessed as potentiation of cefepime-induced antibacterial activity by measuring cefepime MIC50 at 8 ug/ml by broth microdilution method (Rvb > 32 ug/ml)
[32] = Cmax in rat at 100 mg/kg, iv administered as infusion for 0.5 hrs by HPLC/MS analysis; format: ADME, organism-based; design: dose 100 mg/kg, route intravenous; conditions: in vivo
[33] = system: Pseudomonas aeruginosa; experiment: Potentiation of ceftolozane-induced antibacterial activity against Pseudomonas aeruginosa assessed as ceftolozane MIC90 at 8 ug/ml by broth microdilution method (reference value: 4 ug/ml); format: functional

Endothelin-converting enzyme 1, sequence (P42892 whole entry): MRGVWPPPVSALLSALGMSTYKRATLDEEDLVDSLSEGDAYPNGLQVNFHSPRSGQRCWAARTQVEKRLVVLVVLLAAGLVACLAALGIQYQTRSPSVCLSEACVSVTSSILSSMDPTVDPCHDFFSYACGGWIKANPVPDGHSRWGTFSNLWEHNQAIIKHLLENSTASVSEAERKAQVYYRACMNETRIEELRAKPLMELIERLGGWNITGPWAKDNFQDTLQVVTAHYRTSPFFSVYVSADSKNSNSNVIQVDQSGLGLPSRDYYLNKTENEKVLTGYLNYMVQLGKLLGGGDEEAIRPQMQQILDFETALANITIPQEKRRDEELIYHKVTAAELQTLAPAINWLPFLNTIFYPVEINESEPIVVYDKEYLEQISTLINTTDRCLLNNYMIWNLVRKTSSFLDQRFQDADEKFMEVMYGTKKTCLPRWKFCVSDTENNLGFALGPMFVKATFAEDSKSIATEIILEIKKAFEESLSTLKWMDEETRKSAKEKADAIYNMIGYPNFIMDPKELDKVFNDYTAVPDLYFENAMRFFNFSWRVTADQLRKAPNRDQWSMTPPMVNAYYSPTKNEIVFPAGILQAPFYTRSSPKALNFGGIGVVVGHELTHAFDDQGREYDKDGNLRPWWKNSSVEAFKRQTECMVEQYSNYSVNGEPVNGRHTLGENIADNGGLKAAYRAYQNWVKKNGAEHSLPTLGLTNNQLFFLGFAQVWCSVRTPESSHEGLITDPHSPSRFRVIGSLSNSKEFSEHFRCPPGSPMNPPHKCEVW
Chymase, sequence (P23946 whole entry, the tested form may be a part): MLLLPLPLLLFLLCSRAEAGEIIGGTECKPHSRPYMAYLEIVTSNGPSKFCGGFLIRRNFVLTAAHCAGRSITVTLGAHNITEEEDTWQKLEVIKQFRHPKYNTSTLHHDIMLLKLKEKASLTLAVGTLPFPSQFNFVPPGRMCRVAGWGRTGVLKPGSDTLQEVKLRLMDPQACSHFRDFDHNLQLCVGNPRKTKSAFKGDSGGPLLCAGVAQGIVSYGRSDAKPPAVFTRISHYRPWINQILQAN
Neutrophil elastase, sequence (P08246 whole entry): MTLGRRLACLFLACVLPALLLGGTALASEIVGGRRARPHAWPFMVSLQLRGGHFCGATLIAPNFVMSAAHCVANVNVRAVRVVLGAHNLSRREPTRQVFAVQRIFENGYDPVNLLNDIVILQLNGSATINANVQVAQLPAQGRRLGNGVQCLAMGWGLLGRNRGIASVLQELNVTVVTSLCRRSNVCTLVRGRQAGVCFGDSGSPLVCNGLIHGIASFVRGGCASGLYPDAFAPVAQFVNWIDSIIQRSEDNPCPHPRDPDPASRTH
Class A carbapenemase KPC-2, sequence (A8DS27 whole entry): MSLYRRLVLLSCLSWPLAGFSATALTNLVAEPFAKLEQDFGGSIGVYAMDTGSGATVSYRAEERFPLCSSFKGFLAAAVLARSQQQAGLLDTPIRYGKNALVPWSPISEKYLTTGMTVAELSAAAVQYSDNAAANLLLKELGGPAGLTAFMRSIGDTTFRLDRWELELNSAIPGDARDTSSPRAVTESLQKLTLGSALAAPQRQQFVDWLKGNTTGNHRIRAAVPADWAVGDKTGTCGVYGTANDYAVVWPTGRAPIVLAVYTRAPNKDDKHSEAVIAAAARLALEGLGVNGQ
Interstitial collagenase, sequence (P03956 whole entry): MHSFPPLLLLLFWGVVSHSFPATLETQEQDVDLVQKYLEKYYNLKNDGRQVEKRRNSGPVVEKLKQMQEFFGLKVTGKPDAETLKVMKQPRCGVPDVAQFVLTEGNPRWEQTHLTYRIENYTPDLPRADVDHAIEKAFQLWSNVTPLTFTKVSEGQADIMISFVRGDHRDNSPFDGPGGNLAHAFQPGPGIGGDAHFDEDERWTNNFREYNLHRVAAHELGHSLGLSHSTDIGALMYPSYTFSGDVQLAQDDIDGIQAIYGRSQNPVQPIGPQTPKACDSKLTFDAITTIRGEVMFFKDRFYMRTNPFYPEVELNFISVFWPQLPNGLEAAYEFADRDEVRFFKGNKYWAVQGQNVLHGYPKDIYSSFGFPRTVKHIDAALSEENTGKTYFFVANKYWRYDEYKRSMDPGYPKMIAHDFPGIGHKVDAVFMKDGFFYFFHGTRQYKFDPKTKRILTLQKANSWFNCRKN

**Q.** Which results are given for `O=C(O)c1c(F)ccc2c1OB(O)[C@@H]1C[C@H]21` [XERUBORBACTAM]?
**A.** AUC at 0.5 h [1]: 221 µg·h/mL; MIC90 [2]: 0.5 µg/mL; MIC50 [3]: 0.25 µg/mL; half-life [4]: 1.25 h; AUC [5]: 89.7 µg·h/mL; MEC [6]: 0.3 µg/mL; half-life [7]: 1.18 h; CL/F [8]: 18.5 mL/min/kg; IC50 [9]: > 1000 µM; MIC90 [10]: 0.125 µg/mL; Activity [11]: -1.66 log10CFU; MIC50 [12]: 0.5 µg/mL; MIC90 [13]: > 32 µg/mL; IC50 [14]: > 1000 µM; MEC [15]: 0.6 µg/mL; Ki [16]: 0.0019 µM; AUC [17]: 504 µg·h/mL; MIC [18]: 0.25 µg/mL; IC50 [19]: 132 µM; IC50 [20]: > 1000 µM; Activity [21]: Toxic; Activity [22]: -0.42 log10CFU; MIC50 [23]: 16 µg/mL; MIC90 [24]: 0.5 µg/mL; Activity [25]: Non-Toxic; IC50 [26]: > 1000 µM; Ki [27]: 0.00029 µM; bioavailability [28]: 53%; IC50 [29]: 431 µM; Ki [30]: 0.008 µM; MIC50 [31]: < 0.06 µg/mL; Cmax [32]: 208 µg/mL; MIC90 [33]: 1 µg/mL
